Data reported in patent US20210299022A1, “COMPOSITION FOR THE TREATMENT OF NAIL FUNGUS” (Oystershell NV, priority 2020, published 2021).

Assays:
[1] = tolerance of fluorescent whitening agent upon nails; format: in vivo; settings: applied upon nails
Source text: In a preferred embodiment, the composition according to the invention includes 2,5-bis(5-tert-butyl-benzoxazol-2-yl)thiophene as fluorescent whitening agent. 2,5-bis(5-tert-butyl-benzoxazol-2-yl)thiophene is known as FWA-184 and has CAS No: [7128-64-5].

[2] = stability of optical brightener in the composition; format: physicochemical; settings: in composition of example 1
Source text: FWA-184, also known as OB-184 or 2,5′-Bis[2-(5-tert-buty 1-2 benzoxazoly)thiophene is an optical brightener known for polymers, paints and detergents. It's suitable for use in polymers which come into contact with keratinous tissue and skin. Furthermore, it is stable in the present composition. […] It is important that the film-forming polymer is transparent to both visible ranges as well as the wavelengths which are absorbed by the fluorescent whitening agent.

- stability in the present composition [2]: stable
Structure (SMILES): CC(C)(C)c1ccc2oc(-c3ccc(-c4nc5cc(C(C)(C)C)ccc5o4)s3)nc2c1 [FWA-184, 2,5-bis(5-tert-butyl-benzoxazol-2-yl)thiophene]
- tolerance upon nails [1]: well tolerated
